Assay results taken from ChEMBL document CHEMBL1201862, “PubChem BioAssay data set” (2004).
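How tested: cells in 96-well plates exposed to compound for 48 hours at five concentrations. GI50 = concentration required for 50% inhibition of growth.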 The source made the active and inactive calls. Cut-off read from the data, not from the text of the source: active = GI50 up to about 1.1 µM and inactive = higher.

Legend:
Assay in all cases: NCI-60 cell line screen, 48 h
[1] = tested on: HL-60
[2] = tested on: NCI-H23
[3] = tested on: SK-MEL-28
[4] = tested on: CAKI-1
[5] = tested on: UACC-257
[6] = tested on: 786-0
[7] = tested on: SF-268
[8] = tested on: HCT-15
[9] = tested on: SNB-19
[10] = tested on: KM12
[11] = tested on: BT-549
[12] = tested on: M14
[13] = tested on: HCC 2998
[14] = tested on: K562
[15] = tested on: OVCAR-3
[16] = tested on: EKVX
[17] = tested on: NCI-H226
[18] = tested on: HOP-92
[19] = tested on: KM-20L2
[20] = tested on: Hs-578T

## CC(=O)OC1=CC2(OC(C)=O)CC(C)(C)C1C1C(=O)C=CC(=O)C12 (configuration not stated)
[1]
  GI50: > 100 µM (inactive)
[2]
  GI50: > 73.1 µM (inactive)
[3]
  GI50: 41.4 µM (inactive)
[4]
  GI50: > 63.5 µM (inactive)
[5]
  GI50: > 100 µM (inactive)
[6]
  GI50: > 50.7 µM (inactive)
[7]
  GI50: > 63 µM (inactive)
[8]
  GI50: > 55.6 µM
[9]
  GI50: > 100 µM (inactive)
[10]
  GI50: > 100 µM (inactive)
[11]
  GI50: 11.3 µM (inactive)
[12]
  GI50: > 79.3 µM (inactive)
[13]
  GI50: > 58.3 µM (inactive)
[14]
  GI50: 97.1 µM (inactive)
[15]
  GI50: > 66.7 µM (inactive)
[16]
  GI50: > 68.9 µM (inactive)
[17]
  GI50: 29.4 µM (inactive)
[18]
  GI50: 42.5 µM (inactive)
[19]
  GI50: > 100 µM (inactive)

## C1CN1c1nc(N2CC2)nc(N2CC2)n1
[1]
  GI50: 0.649 µM (active)
[2]
  GI50: 2.73 µM (inactive)
[3]
  GI50: 14.3 µM (inactive)
[4]
  GI50: 2.19 µM (inactive)
[5]
  GI50: 10.7 µM (inactive)
[6]
  GI50: 2.97 µM (inactive)
[7]
  GI50: 2.99 µM (inactive)
[20]
  GI50: 26.5 µM (inactive)
[8]
  GI50: 12.9 µM
[9]
  GI50: 6.65 µM (inactive)
[10]
  GI50: 16.2 µM (inactive)
[11]
  GI50: 15.9 µM (inactive)
[12]
  GI50: 4.84 µM (inactive)
[13]
  GI50: 8.87 µM (inactive)
[14]
  GI50: 10.4 µM (inactive)
[15]
  GI50: 16 µM (inactive)
[16]
  GI50: 19.5 µM (inactive)
[17]
  GI50: 8.24 µM (inactive)
[18]
  GI50: 10 µM (inactive)
[19]
  GI50: 15.1 µM (inactive)

## Cc1ccc(C(=O)C(C2=Nc3nnc(N)n3C2=O)C2=Nc3nnc(N)n3C2=O)cc1
[1]
  GI50: > 100 µM (inactive)
[2]
  GI50: > 100 µM (inactive)
[3]
  GI50: > 100 µM (inactive)
[4]
  GI50: > 100 µM (inactive)
[5]
  GI50: > 100 µM (inactive)
[6]
  GI50: > 100 µM (inactive)
[7]
  GI50: > 100 µM (inactive)
[8]
  GI50: > 100 µM
[9]
  GI50: > 100 µM (inactive)
[10]
  GI50: > 100 µM (inactive)
[12]
  GI50: > 100 µM (inactive)
[13]
  GI50: > 100 µM (inactive)
[14]
  GI50: > 100 µM (inactive)
[15]
  GI50: > 100 µM (inactive)
[16]
  GI50: > 100 µM (inactive)
[17]
  GI50: > 100 µM (inactive)
[18]
  GI50: > 100 µM (inactive)
[19]
  GI50: > 100 µM (inactive)
